Laboratory results: patent US5948782A, “Pharmaceutical composition containing quinoline and quinazoline derivatives and novel compounds therefor” (Takeda Chemical, priority 1992, dated 1999)

How the values were obtained:
Rat Adjuvant Arthritis = assay: Effects on Rat Adjuvant Arthritis; format: in vivo; details: 336 h, Lewis rats, 50 mg/kg once a day for 14 days; for change in vivo at 50 mg/kg: based on drug-unadministered rats, read-out: Increase rate of body weight (%); for inhibition in vivo at 50 mg/kg: left hind leg, 14th day, read-out: Swelling inhibitory rate (%)
[1] = test system: Rat Carrageenin Paw Edema; assay: Rat Carrageenin Paw Edema Inhibitory Activity; format: in vivo; details: Jcl:SD rats, 50 mg/kg orally, 3 hours after carrageenin
Protocol: Rat Carrageenin Paw Edema Inhibitory Activity
The volume of a planter part of a right hind leg of Jcl:SD rats (male, 6 weeks old) was measured, and then suspension of a test drug (50 mg/kg) in 5% acacia was administered orally. Then water was administered additionally so that the total amount of administered liquid became 5 ml/rat. After 1 hour, a suspension (0.05 ml) containing 1% carrageenin in physiological saline was injected intradermally into the plantar to induce swelling [Winter, C. A. et al; Proc. Soc. Exp. Biol. Med., 111, 544 (1962)]. The volume of the right hind leg was measured again 3 hours after the carrageenin injection, and swelling inhibitory rate was calculated from the difference in the volumes before and after the injection.

[2] = test system: mouse phenylquinone writhing; assay: Analgesic Activity in Mice (phenylquinone writhing model); format: in vivo; details: Slc:ICR mice, 50 mg/kg orally, 20 minutes
Protocol: Analgesic Activity in Mice
A drug (50 mg/kg) suspended in 5% acacia was administered orally to Slc:ICR mice (male, 4 weeks old). After 30 minutes, a 0.02% phenylquinone solution (0.1 ml/[…]) in 5% ethanol was administered intraperitoneally. Writhing and stretching reactions for 20 minutes after the injection were calculated for each mouse to evaluate analgesic activity of the test drug [Siegmund, E. et al.; Proc. Soc. Exp. Biol. Med., 95, 729 (1957)].

IL-1β = assay: Anti-IL-1 activity (extracellular substrates of rat cartilage cells); format: cell-based; details: 72 h, IL-1β 0.2 ng/ml, 3 days, read-out: IL-1 inhibitory activity (%)
Protocol: Rat cartilage cells were prepared according to the known method [Fujio Suzuki et al., Sin Seikagaku Jikken Kohza, 18, p.871-875 (1990)] and cultivated in Dulbecco's Medium containing 10% fetal bovine serum. After 8 days, various concentrations of a test drug and IL-1β (0.2 ng/ml) were added, and the cells were cultivated for additional 3 days. The amount of extracellular substrates thus produced was determined.
Although IL-1β inhibits the synthesis of extracellular substrates of cartilage cells, addition of the drug inhibits the IL-1 activity and the amount of extracellular substrates synthesized was recovered.

mice = assay: Oral toxicity in mice; format: in vivo; details: 300 mg/kg administered orally to mice
Protocol: The compounds of the present invention have low toxicity. For example, when 300 mg/kg of the compounds prepared in Examples 36, 45, 47, 54 and 64 were administered orally to mice, no mice died. Therefore, the compounds of the present invention are useful as an anti-inflammatory agent, particularly an agent for treating arthritis producing inflammatory symptoms, in humans and other mammals.

[3] = test system: Antigen-responsive T cell; assay: Antigen-Responsive T Cell Growth Inhibitory Activity (PPD-stimulated 3H-Tdr incorporation); format: cell-based, Lewis rats; details: PPD 2 μg/ml, Lewis rat T cells, read-out: Antigen-responsive T cell growth inhibitory rate (%)
Protocol: Antigen-Responsive T Cell Growth Inhibitory Activity
According to the method of Test Example 1, adjuvant arthritis was induced in Lewis rats (male, 7 weeks old). After 14 days, lymphonodi inguinales were excised. Then, a single-cell suspension was prepared by using RPMI-1640 medium containing 5% fetal bovine serum and then incubated at 37° C. for 1 hour in a nylon wool column. The cells were eluted from the column with the same medium. The non-adsorptive cell-fraction was used as T cells.
On the other hand, spleen cells were taken out from unsensitized Lewis rats (male, 8 to 9 weeks old) and irradiated with soft X-rays (20,000 R). To the spleen cells (1×10^5 cells/well) were added the above T cells (5×10^5 cells/well), PPD (Purified Protein Derivatives; final concentration: 2 μg/ml) and 2% Lewis rat serum (treated at 56° C. for 30 minutes). The mixture was incubated at 37° C. for 72 hours in a 5% carbonic acid incubator. Further, ^3 H-Tdr (0.5 μCi/well) was added followed by incubation for 24 hours. The cells were recovered, and the radioactivity of ^3 H-Tdr incorporated into the cells was determined. The test drug was added to the cell suspension just before the addition of PPD, and effects on incorporation of ^3 H-Tdr into the cells were observed.

| Structure (SMILES) | change in vivo at 50 mg/kg (Rat Adjuvant Arthritis) | inhibition in vivo at 50 mg/kg (Rat Adjuvant Arthritis) | inhibition at 1 µM [3] | inhibition at 10 µM [3] | also measured |
| --- | --- | --- | --- | --- | --- |
| CCOC(=O)c1c(C[S+]([O-])c2nccn2C)nc2cc(OC)c(OC)cc2c1-c1ccc(OC)c(OC)c1 (stereo not drawn) [Example 2, ethyl 6,7-dimethoxy-4-(3,4-dimethoxyphenyl)-2-[(1-methylimidazol-2-yl)sulfinylmethyl]quinoline-3-carboxylate] | 39% | 73% | – | – | – |
| CCOC(=O)c1c(C[S+]([O-])c2nc3ccccc3[nH]2)nc2cc(OC)c(OC)cc2c1-c1ccc(OC)c(OC)c1 (stereo not drawn) [Example 3, ethyl 2-[(2-benzimidazolyl)sulfinylmethyl]-6,7-dimethoxy-4-(3,4-dimethoxyphenyl)quinoline-3-carboxylate] | – | – | – | – | Swelling inhibitory rate (%) [1]: 23% |
| CCOC(=O)c1c(CSc2nc3ccccc3[nH]2)nc2cc(OC)c(OC)cc2c1-c1ccc(OC)cc1 [Example 27, ethyl 6,7-dimethoxy-4-(4-methoxyphenyl)-2-[(benzimidazol-2-yl)thiomethyl]quinoline-3-carboxylate] | – | – | – | – | Inhibitory rate (%) [2]: 39% |
| CCOC(=O)c1c(CSc2nccn2C)nc2cc(OC)c(OC)cc2c1-c1ccc(OC)cc1 [Example 28, ethyl 6,7-dimethoxy-4-(4-methoxyphenyl)-2-[(1-methylimidazol-2-yl)thiomethyl]quinoline-3-carboxylate] | – | – | – | – | inhibition at 1 µM (IL-1β): 34%; inhibition at 10 µM (IL-1β): 44%; Inhibitory rate (%) [2]: 43% |
| CCOC(=O)c1c(CSc2nccn2C)nc2cc(OC)c(OC)cc2c1-c1ccc(C)cc1 [Example 33, ethyl 6,7-dimethoxy-4-(4-methylphenyl)-2-[(1-methylimidazol-2-yl)thiomethyl]quinoline-3-carboxylate] | 12% | 67% | – | – | – |
| CCOC(=O)c1c(CSc2nncn2C)nc2cc(OC)c(OC)cc2c1-c1ccc(OC)c(OC)c1 [Example 35, ethyl 6,7-dimethoxy-4-(3,4-dimethoxyphenyl)-2-[(4-methyl-1,2,4-triazol-3-yl)thiomethyl]quinoline-3-carboxylate] | 11% | 64% | – | – | – |
| CCOC(=O)c1c(CSc2nccn2C)nc2cc(OC)c(OC)cc2c1-c1ccc(OC)c(OC)c1 [Example 36, ethyl 6,7-dimethoxy-4-(3,4-dimethoxyphenyl)-2-[(1-methylimidazol-2-yl)thiomethyl]quinoline-3-carboxylate] | 30% | 48% | 33% | 79% | inhibition at 1 µM (IL-1β): 22%; inhibition at 10 µM (IL-1β): 48%; mortality (mice): no mice died; Inhibitory rate (%) [2]: 59% |
| CCOC(=O)c1c(CSCc2ccc(Cl)cc2)nc2cc(OC)c(OC)cc2c1-c1ccc(OC)c(OC)c1 [Example 41, ethyl 6,7-dimethoxy-4-(3,4-dimethoxyphenyl)-2-[(4-chlorophenyl)methylthiomethyl]quinoline-3-carboxylate] | – | – | – | – | inhibition at 1 µM (IL-1β): 17%; inhibition at 10 µM (IL-1β): 50% |
| CCOC(=O)c1c(CSc2ccc(Cl)cc2)nc2cc(OC)c(OC)cc2c1-c1ccc(OC)c(OC)c1 [Example 42, ethyl 6,7-dimethoxy-4-(3,4-dimethoxyphenyl)-2-[(4-chlorophenyl)thiomethyl]quinoline-3-carboxylate] | – | – | – | – | Inhibitory rate (%) [2]: 47% |
| CCOC(=O)c1c(CSc2nccc(=O)[nH]2)nc2cc(OC)c(OC)cc2c1-c1ccc(OC)c(OC)c1 [Example 45, ethyl 6,7-dimethoxy-4-(3,4-dimethoxyphenyl)-2-[(6(1H)-pyrimidon-2-yl)thiomethyl]quinoline-3-carboxylate] | – | – | 36% | 70% | mortality (mice): no mice died |
| CCOC(=O)c1c(CSc2ncccc2O)nc2cc(OC)c(OC)cc2c1-c1ccc(OC)c(OC)c1 [Example 46, ethyl 6,7-dimethoxy-4-(3,4-dimethoxyphenyl)-2-[(3-hydroxypyridin-2-yl)thiomethyl]quinoline-3-carboxylate] | – | – | 39% | 92% | – |
| CCOC(=O)c1c(CSC2=NCCS2)nc2cc(OC)c(OC)cc2c1-c1ccc(OC)c(OC)c1 [Example 47, ethyl 6,7-dimethoxy-4-(3,4-dimethoxyphenyl)-2-[(2-thiazolin-2-yl)thiomethyl]quinoline-3-carboxylate] | – | – | 61% | 93% | mortality (mice): no mice died |
| CCOC(=O)c1c(CSc2nc3ccccc3[nH]2)nc2cc(OC)c(OC)cc2c1-c1ccc(OC)c(OC)c1 [Example 53, ethyl 6,7-dimethoxy-4-(3,4-dimethoxyphenyl)-2-[(benzimidazol-2-yl)thiomethyl]quinoline-3-carboxylate] | – | – | 51% | 91% | inhibition at 1 µM (IL-1β): 39%; inhibition at 10 µM (IL-1β): 71% |
| CCOC(=O)c1c(CSc2nc3ccc(F)cc3[nH]2)nc2cc(OC)c(OC)cc2c1-c1ccc(OC)c(OC)c1 [Example 54, ethyl 6,7-dimethoxy-4-(3,4-dimethoxyphenyl)-2-[(5-fluorobenzimidazol-2-yl)thiomethyl]quinoline-3-carboxylate] | – | – | – | – | mortality (mice): no mice died; Swelling inhibitory rate (%) [1]: 21% |
| CCOC(=O)c1c(CSc2nc3ccccc3s2)nc2cc(OC)c(OC)cc2c1-c1ccc(OC)c(OC)c1 [Example 60, ethyl 6,7-dimethoxy-4-(3,4-dimethoxyphenyl)-2-[(benzothiazol-2-yl)thiomethyl]quinoline-3-carboxylate] | – | – | 59% | 91% | Swelling inhibitory rate (%) [1]: 31% |
| CCOC(=O)c1c(CSc2nnc3ccccn23)nc2cc(OC)c(OC)cc2c1-c1ccc(OC)c(OC)c1 [Example 66, ethyl 6,7-dimethoxy-4-(3,4-dimethoxyphenyl)-2-[(pyrido[1,2-a][1,3,4]triazol-5-yl)thiomethyl]quinoline-3-carboxylate] | – | – | – | – | Inhibitory rate (%) [2]: 58% |
| CCOC(=O)c1c(CSc2nccn2C)nc2cc(OC)c(OC)cc2c1-c1ccc2c(c1)OCO2 [Example 69, ethyl 6,7-dimethoxy-4-(3,4-methylenedioxyphenyl)-2-[(1-methylimidazol-2-yl)thiomethyl]quinoline-3-carboxylate] | 17% | 63% | – | – | – |
| CCOC(=O)c1c(CSc2nccn2C)nc2cc(OCC)c(OCC)cc2c1-c1ccc(OC)c(OC)c1 [Example 72, ethyl 6,7-diethoxy-4-(3,4-dimethoxyphenyl)-2-[(1-methylimidazol-2-yl)thiomethyl]quinoline-3-carboxylate] | 27% | 50% | – | – | – |
| CCOC(=O)c1c(CCc2nccn2C)nc2cc(OC)c(OC)cc2c1-c1ccc(OC)c(OC)c1 [Example 87, ethyl 6,7-dimethoxy-4-(3,4-dimethoxyphenyl)-2-[2-(1-methylimidazol-2-yl)ethyl]quinoline-3-carboxylate] | 27% | 75% | – | – | – |
| COc1ccc(-c2nc(CCc3nccn3C)nc3cc(OC)c(OC)cc23)cc1OC [Example 88, 6,7-dimethoxy-4-(3,4-dimethoxyphenyl)-2-[2-(1-methylimidazol-2-yl)ethyl]quinazoline] | 24% | 62% | – | – | – |
